Values quoted from earlier work in US7790164B2, “Fragments of antibodies to epidermal growth factor receptor and methods of their use” (Van Andel Research Institute, priority 2007, dated 2010).
pIC50: −log10 of the molar value.

Tested on: A431 cells
Conditions: Ojima et al. J Med Chem 2002, read-out: IC50 of A431 to paclitaxel; cited from earlier work

CC(=O)O[C@H]1C(=O)[C@@]2(C)[C@H]([C@H](OC(=O)c3ccccc3)[C@]3(O)C[C@H](OC(=O)[C@H](O)[C@@H](NC(=O)c4ccccc4)c4ccccc4)C(C)=C1C3(C)C)[C@]1(OC(C)=O)CO[C@@H]1C[C@@H]2O [paclitaxel]
pIC50: ~10.05
